According to patent publication US20080274959A1, “Actinomadura Chromoprotein, Apoprotein and Gene Cluster” (Wyeth, priority 2004, published 2008):

Columns and labels:
HCT116 cells = assay: Uptake of FITC-tagged protein, fluorescent microscopy / flow cytometry; assay type: cell-based, human
Excerpt: To determine the mechanism by which the chromoprotein enters cells and exerts its biological activity, the chromoprotein was labeled with a fluorescent tag (FITC) using EZ-Label fluorescent labeling kit (Pierce Biotechnology), according to the manufacturer's recommendation. […] Uptake of labeled material by HCT116 colon carcinoma cells was studied by fluorescent microscopy.
To determine whether an intact complex of chromophore and apoprotein is required for cellular and nuclear entry, the chromoprotein and apoprotein were labeled with FITC. Uptake of labeled material was studied by fluorescent microscopy.
To determine whether the entry of chromoprotein into cells is mediated by a saturable (e.g. cell surface receptor-dependent) process, HCT116 cells were incubated with FITC-labeled chromoprotein (FIG. 28, right panel) or apoprotein (FIG. 28, left panel) in the absence or presence of 10-fold excess of unlabeled reagent (unlabelled chromoprotein or apoprotein, respectively). Cells were analysed by fluorescent microscopy (left) or flow cytometry (right). […] Numbers in the histograms are mean channel numbers (FITC fluorescence).
Other means by which a protein complex can enter cells is pinocytosis, where caveolae in the surface of the cell pinch off to form pinosomes that are free within the cytoplasm of the cell. Since pinocytosis is an energy-dependent process that requires a functional tubulin cytoskeletal network, we examined the effect of sodium azide, an energy uncoupling agent and nocodazole, an agent which disrupts the tubulin cytoskeleton on cellular uptake. HCT116 cells were treated with FITC-labeled apoprotein in the absence or presence of sodium azide or nocodazole.

histone H1 in HeLa cells = assay: Digestion of histone H1 in HeLa cells, immunoblot; assay type: cell-based; conditions: overnight at 37° C., anti-histone H1 immunoblot
Experimental: To study whether the digestion of histones by the chromoprotein occurs in intact cells, HeLa cells were incubated with compounds overnight at 37° C. Cell lysates were analysed by SDS-PAGE and protein immunoblotting using anti-histone H1 antibodies (Santa Cruz Biotechnologies). […] This activity can contribute to antitumor effects by digesting histones in chromatin, making the DNA more accessible for cleavage. This appears to be a unique activity of the chromoprotein enediynes.

Histone H1 = assay: Digestion of histone H1, SDS-PAGE; assay type: biochemical; conditions: 50 mM Tris-Cl, pH 7.5 overnight at 37° C.
Experimental: Histone H1 was incubated with various concentrations of the chromoprotein in 50 mM Tris-Cl, pH 7.5 overnight at 37° C. (FIG. 20) Digestions of histone were assessed by SDS-polyacrylamide gel electrophoresis (SDS-PAGE), followed by staining of the gel with GelCode Blue (Pierce Biotechnology, Inc, Rockford, Ill.).

KB = assay: IC50 against P-GP expressing cells: KB; assay type: cell-based; conditions: P-GP level −, mean of two independent experiments
Excerpt: (§1) Human PGP (MDR1) is an ATP-dependent efflux pump which is capable of transporting many drugs across cell membranes. High level expression of this protein has been linked to multiple drug resistance of tumors. […] The protein component of the chromoprotein probably protects the chromophore from drug efflux mediated by MDR1, and may be responsible for the beneficial antitumor effects in colon cell lines which often express MDR1.

KB-8-5 = assay: IC50 against P-GP expressing cells: KB-8-5; assay type: cell-based; conditions: KB-8-5, P-GP level +; mean of two independent experiments
Excerpt: as §1

KB-V-1 = assay: IC50 against P-GP expressing cells: KB-V-1; assay type: cell-based; conditions: KB-V-1, P-GP level +++; mean of two independent experiments
Excerpt: as §1

Human PGP (MDR1) = molecular target: T1, Human PGP (MDR1) (Homo sapiens, UniProt P08183); assay: Transport by P-GP (MDR-1); assay type: cell-based; conditions: judged from IC50 in KB, KB-8-5, KB-V-1 cells
T1 construct: endogenous in cells; parental KB is P-GP negative
Excerpt: as §1

[1] = test system: human tumor cell line panel; assay: In vitro anti-tumor activity, human tumor cell line panel; assay type: cell-based; conditions: apoprotein alone

T1 sequence (P08183 whole entry): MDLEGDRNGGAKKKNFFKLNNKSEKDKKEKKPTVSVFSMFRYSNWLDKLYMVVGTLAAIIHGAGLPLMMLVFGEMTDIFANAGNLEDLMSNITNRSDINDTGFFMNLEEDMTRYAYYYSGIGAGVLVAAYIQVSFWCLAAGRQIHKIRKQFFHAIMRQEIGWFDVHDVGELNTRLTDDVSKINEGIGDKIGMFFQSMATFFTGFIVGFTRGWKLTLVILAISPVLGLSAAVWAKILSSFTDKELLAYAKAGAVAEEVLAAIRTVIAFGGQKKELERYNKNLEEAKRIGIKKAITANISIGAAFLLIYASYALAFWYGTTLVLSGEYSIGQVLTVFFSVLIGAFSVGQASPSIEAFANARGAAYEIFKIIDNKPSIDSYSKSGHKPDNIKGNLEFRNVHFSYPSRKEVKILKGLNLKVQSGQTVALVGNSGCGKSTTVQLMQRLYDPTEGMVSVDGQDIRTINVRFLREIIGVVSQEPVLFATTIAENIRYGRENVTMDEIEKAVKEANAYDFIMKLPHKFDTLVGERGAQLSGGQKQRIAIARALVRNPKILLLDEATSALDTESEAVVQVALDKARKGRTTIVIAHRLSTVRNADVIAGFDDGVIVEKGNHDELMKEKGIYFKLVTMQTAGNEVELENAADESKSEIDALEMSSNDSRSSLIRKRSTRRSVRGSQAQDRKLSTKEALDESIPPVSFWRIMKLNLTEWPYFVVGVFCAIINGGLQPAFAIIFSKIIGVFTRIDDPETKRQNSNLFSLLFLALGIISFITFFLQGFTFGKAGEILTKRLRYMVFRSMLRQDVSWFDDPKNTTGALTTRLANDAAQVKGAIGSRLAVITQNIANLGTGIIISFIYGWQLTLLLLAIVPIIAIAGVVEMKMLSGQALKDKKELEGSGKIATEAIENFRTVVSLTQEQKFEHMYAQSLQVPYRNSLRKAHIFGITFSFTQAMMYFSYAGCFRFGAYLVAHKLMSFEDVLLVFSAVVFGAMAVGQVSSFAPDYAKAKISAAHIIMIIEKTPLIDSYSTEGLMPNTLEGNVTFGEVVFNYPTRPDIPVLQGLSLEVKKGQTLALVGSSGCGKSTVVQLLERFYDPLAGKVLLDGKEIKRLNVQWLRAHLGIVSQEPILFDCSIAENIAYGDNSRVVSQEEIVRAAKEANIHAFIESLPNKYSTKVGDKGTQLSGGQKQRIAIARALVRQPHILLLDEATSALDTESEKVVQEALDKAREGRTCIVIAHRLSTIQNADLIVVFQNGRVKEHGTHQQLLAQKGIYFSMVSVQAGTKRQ

`COC(=O)Nc1nc2ccc(C(=O)c3cccs3)cc2[nH]1` [nocodazole, reference compound] was tested, and the “effect on uptake of FITC-labeled apoprotein” value (HCT116 cells; HCT116 cells) was “inhibited uptake of label”.

With bleomycin the “histone H1 in cells after incubation” value (histone H1 in HeLa cells) was “No effect”.

With calicheamicin [reference compound] the “digestion of histone H1” value (Histone H1) was “did not cleave histone H1”, the “histone H1 in cells after incubation” value (histone H1 in HeLa cells) was “No effect” and the IC50 (KB) was 0.003 µg/mL. For the same molecule, the IC50 (KB-8-5) was 0.021 µg/mL, the IC50 (KB-V-1) was greater than 1 µg/mL and the “MDR1 substrate” value (Human PGP (MDR1)) was “good substrate for MDR1”.

B1: apoprotein: protein component of the 21G792 chromoprotein without chromophore, SEQ ID NO:150, 12.92409 kDa by MALDI-MS (protein)
chain: DTVTVNYDCVGYPSDIAVTIDAPATAGVGDTATFEVSSVVTTGAPQDLPAGEVVTDMAIVVGGAQSGTITASGLTNEATPAGQPVNMVGGEAQITFTSAGSVTFTPSTTTQVDNGAQCTVVGEAPVGATTVVS
modifications: Actinomadura sp. 21G792
For B1, the “in vitro anti-tumor activity” value [1] was “inactive”, the “digestion of histone H1” value (Histone H1) was “no activity” and the “uptake, apoprotein compared with chromoprotein” value (HCT116 cells; FITC-labeled) was “similar”. The “competition of uptake by 10-fold excess of unlabeled reagent” value (HCT116 cells; FITC-labeled, microscopy or flow cytometry) was “No competition of label”.
